Measured values published in patent publication US11414438B2, “Silylethynyl hetaryl compounds as nitrification inhibitors” (BASF SE, priority 2018, dated 2022).

Legend:
[1] = test system: nitrification; assay: inhibition of nitrification in soil incubation (ammonium and nitrate content after 14 days); details: 20° C., 10 mg ammoniumsulfate-N; for NI @ 0.1%: compound at 0.1% of nitrogen N; for NI @ 0.3%: compound at 0.3% of nitrogen N; for NI @ 3%: compound at 3% of nitrogen N; for NI @ 1%: compound at 1% of nitrogen N
Procedure: The compounds of the invention have been tested as follows in terms of the inhibition of nitrification:
100 g soil is filled into 500 ml plastic bottles (e.g. soil sampled from the field) and is moistened to 50% water holding capacity. The soil is incubated at 20° C. for two weeks to activate the microbial biomass. 1 ml test solution, containing the compound in the appropriate concentration (usually 0.3 or 1% of nitrogen N), or DMSO and 10 mg nitrogen in the form of ammoniumsulfate-N is added to the soil and everything mixed well. Bottles are capped but loosely to allow air exchange. The bottles are then incubated at 20° C. for 0 and 14 days.
For analysis 300 ml of a 1% K2SO4-solution is added to the bottle containing the soil and shaken for 2 hours in a horizontal shaker at 150 rpm. Then the whole solution is filtered through a filter (Macherey-Nagel Filter MN 807¼). Ammonium and nitrate content is then analyzed in the filtrate in an autoanalyzer at 550 nm (Merck, AA11).
The inhibition (NI @ a specified concentration) is calculated as follows: […]

[2] = volatility: weight loss from open vials in the hood; type: physicochemical; details: 251 mg in 10 ml vials open in the hood
Procedure: The compounds of the invention have been tested in terms of their volatility. 251 mg of the compounds were provided in 10 ml vials open in the hood and tested in comparison to 5-chloro-2-ethynyl pyridine (Ref.-1). The weight loss was determined after 1 week.

| % weight loss after 1 week [2] [%] | SMILES | NI @ 0.1% [1] | NI @ 0.3% [1] | NI @ 3% [1] | NI @ 1% [1] |
| --- | --- | --- | --- | --- | --- |
| – | C[Si](C)(C)C#Cc1ccccn1 [No. 1] | 54 | 77 | 86 | – |
| – | C[SiH](C)C#Cc1ccccn1 [No. 2] | – | 82 | – | 94 |
| – | C[Si](C)(C#Cc1ccccn1)CCl.Cl [No. 3] | – | 80 | – | 91 |
| – | CC(C)(C)[Si](C)(C)C#Cc1ccccn1 [No. 4] | – | 11 | – | 28 |
| – | C[Si](C)(C#Cc1ccccn1)O[Si](C)(C)C#Cc1ccccn1 [No. 5] | – | 78 | – | 83 |
| – | C[Si](C)(C#Cc1ccccn1)O[Si](C)(C)O[Si](C)(C)C#Cc1ccccn1 [No. 6] | – | 51 | – | 75 |
| – | C[Si](C)(C#Cc1ccccn1)O[Si](C)(C)O[Si](C)(C)O[Si](C)(C)C#Cc1ccccn1 [No. 7] | – | 31 | – | 63 |
| – | C[Si](C)(C#Cc1ccccn1)C[Si](C)(C)C#Cc1ccccn1 [No. 8] | – | 16 | – | 43 |
| – | C[Si](C)(C#Cc1ccccn1)c1ccccc1 [No. 9] | – | 83 | – | 80 |
| 8 | C[Si](C)(C)C#Cc1ccc(Cl)cn1 [No. 10] | 61 | 75 | 85 | – |
| – | Cc1ccc(C#C[Si](C)(C)C)nc1 [No. 11] | – | 63 | – | 77 |
| 24 | C[Si](C)(C)C#Cc1cnccn1 [No. 12] | 71 | 98 | – | – |
| 53 | C#Cc1ccc(Cl)cn1 [Ref.-1, 5-chloro-2-ethynyl pyridine, reference compound] | – | – | – | – |
